According to patent US6235717A, “Pharmaceutical compounds” (Glaxo Wellcome Inc., priority 1993, dated 2001):
Non-standard residues stand in square brackets, D forms with d. Residues, ends and D or L forms follow the SMILES beside them. *: point of attachment. Phe(4-Br) = N[CH](Cc1ccc(Br)cc1)C(=O)O; Cbz = O=C(OCc1ccccc1)*; Bn = c1ccc(C*)cc1

Biological target: endothelin converting enzyme (ECE) (Sus scrofa, UniProt F1SU04)
Assay: "ECE" assay with porcine aortic "ECE" prep, fluorogenic substrate Suc-Ile-Ile-Trp-MCA
Format: biochemical
Details: porcine aortic endothelial cell ECE prep; 80 μM Suc-Ile-Ile-Trp-MCA; 15-20 min preincubation; overnight at 37° C.; pH 7.0; AMC fluorescence
Experimental: IC50 values were determined as follows:
Porcine Aortic "ECE" Prep
Porcine aortas (22-25) were obtained fresh from a local slaughterhouse and delivered in cold PBS on ice. The aortas were cut open, rinsed with cold PBS and the endothelial cell layer scraped into cold PBS using a scalpel. The endothelial cells were pelleted by centrifugation, rinsed once with cold PBS, and repelleted. The pellet was lysed by addition of 10 volumes of 10 mM Tris-HCl, pH 7.0, containing protease inhibitors and DTS, followed by brief sonication and homogenization. The lysate was centrifuged at 100,000 g for 1 hour and the supernatant applied to a MONOQ FPLC anion exchange column equilibrated in 10 mM Tris-HCl, pH 7.0 (buffer A) which was then developed with an increasing gradient of NaCl in buffer A. The active fractions were aliquoted and stored at -70° C.
The ECE assay was performed in 96-well microplates in a total volume of 200μ/well. The assay cocktail contains 100 mM Tris-HCl, pH 7.0, 20 mM CaCl2, 80 μM substrate (Suc-Ile-Ile-Trp-MCA), enzyme and test compounds. The test compounds were preincubated with the enzyme for 15-20 minutes before initiation of the assay by addition of the substrate. The assay was incubated overnight at 37° C. and the fluorescence intensity caused by the release of AMC was determined using a fluorescence microplate reader (EX360 nm/EM460 nm). IC50 values for compounds were determined by constructing concentration-effect curves for the inhibition of enzyme activity. Concentrations on the linear portion of the inhibition curve were used to determine the IC50 utilizing a Hill plot.

Chain of endothelin converting enzyme (ECE) (F1SU04 entry or part of it): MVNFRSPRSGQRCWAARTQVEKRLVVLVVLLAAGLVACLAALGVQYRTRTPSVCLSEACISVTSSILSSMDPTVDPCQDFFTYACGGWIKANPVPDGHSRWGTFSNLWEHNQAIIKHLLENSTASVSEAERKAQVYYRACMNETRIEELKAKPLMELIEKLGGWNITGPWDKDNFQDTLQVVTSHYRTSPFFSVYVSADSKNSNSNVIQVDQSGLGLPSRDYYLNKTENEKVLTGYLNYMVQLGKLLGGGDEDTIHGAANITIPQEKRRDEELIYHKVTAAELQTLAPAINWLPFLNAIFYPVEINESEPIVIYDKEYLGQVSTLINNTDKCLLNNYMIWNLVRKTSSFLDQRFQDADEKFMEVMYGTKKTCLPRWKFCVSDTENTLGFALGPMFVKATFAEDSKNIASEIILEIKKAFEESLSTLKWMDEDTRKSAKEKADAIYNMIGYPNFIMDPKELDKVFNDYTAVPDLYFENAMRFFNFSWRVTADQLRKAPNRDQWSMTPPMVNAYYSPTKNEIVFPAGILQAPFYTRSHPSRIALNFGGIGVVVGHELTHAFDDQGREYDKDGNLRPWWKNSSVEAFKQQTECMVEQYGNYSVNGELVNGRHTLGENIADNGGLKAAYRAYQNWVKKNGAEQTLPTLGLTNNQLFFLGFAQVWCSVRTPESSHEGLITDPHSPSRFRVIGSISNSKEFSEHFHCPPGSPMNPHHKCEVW

Going from `O=C[C@H](Cc1ccc(Br)cc1)NC(=O)[C@H](Cc1ccc(OCc2ccccc2)cc1)NC(=O)[C@H](Cc1ccc(OCc2ccccc2)cc1)NC(=O)OCc1ccccc1` [Example 98, N-Benzyloxycarbonyl-S-(O-benzyl)tyrosyl-S-(O-benzyl)tyrosyl-1-S-formyl-1-(4-bromophenylmethyl)-methylamide] (Cbz-Tyr(Bn)-Tyr(Bn)-[Phe(4-Br)]-aldehyde) to `CCOc1ccc(CC(NC(=O)C(Cc2ccc(OCc3ccccc3)cc2)NC(=O)OCc2ccccc2)C(=O)NC(C=O)Cc2ccc(Br)cc2)cc1` (stereo not drawn) [Example 99, N-Benzyloxycarbonyl-S-(O-benzyl)tyrosyl-S-(O-ethyl)tyrosyl-1-S-formyl-1-(4-bromophenylmethyl)-methylamide] (Cbz-Tyr(Bn)-Tyr(Et)-[Phe(4-Br)]-aldehyde; configuration not given here), the IC50 falls from 1 µM to 0.02 µM (50-fold).

Compared with `CCOc1ccc(C[C@H](NC(=O)OCc2ccccc2)C(=O)N[C@@H](Cc2ccc(OCc3ccccc3)cc2)C(=O)N[C@H](C=O)Cc2ccc(Br)cc2)cc1` [Example 100, N-Benzyloxycarbonyl-S-(O-ethyl)tyrosyl-S-(O-benzyl)tyrosyl-1-S-formyl-1-(4-bromophenylmethyl)-methylamide] (Cbz-Tyr(Et)-Tyr(Bn)-[Phe(4-Br)]-aldehyde), “N-(3-Phenylpropionyl)-L-isoleucyl-L_isoleucine-L-N-[1-formyl]2-(1H-indol-3- yl)ethyl]amide [Example 59]” is 1.7-fold higher in IC50: 0.06 µM for the first, 0.1 µM for the second.

Going from “N-(benzyloxy)carbonyl-L-isoleucyl-L-isoleucine-L-N[1-[[(5-nitro-2-pyridyl)dithio]methyl]-2-(1H-indol-3-yl)ethyl]amide [Example 57]” to “N-Benzloxycarbonyl-L-isoleucyl-L-isoleucine-L-N-[1-ethoxalyl]2-(phenyl)ethyl]amide [Example 53]”, the IC50 rises from 1 µM to 10 µM (10-fold).

First: N-Benzyloxycarbonyl-L-isoleucyl-L-isoleucine-L-N-[1-[2-oxiranylcarbonyl]-2- (phenyl)ethyl]amide [Example 45]
Second: N-Benzyloxycarbonyl-L-isoleucyl-L-isoleucine-L-N-[1-formylhydroxymethyl-2-(phenylethyl]amide) [Example 47]
The IC50 of the first is 25-fold lower: 0.2 µM for the first, 5 µM for the second. The first is the more potent here.

Going from “N-Benzyloxycarbonyl-L-isoleucyl-L-isoleucine-L-N-[1-glyoxyloyl-2-(phenyl)ethyl]amide [Example 46]” to “N-Benzyloxycarbonyl-L-isoleucyl-L-isoleucine-L-N-[1pyruvoyl]2-(phenyl)ethyl]amide [Example 52]”, the IC50 rises from 0.8 µM to 2 µM (2.5-fold).

“N-Benzyloxycarbonyl-L-isoleucyl-L-isoleucine-L-N-[(E)-2-(methoxycarbonyl)vinyl]2-(1H-indol-3-yl)ethyl]amide [Example 51]” and “N-Benzyloxycarbonyl-L-isoleucyl-L_isoleucine-L-N-[1[2-(acetylthio)acetyl]2- phenyl)ethyl]amide [Example 55]” are within 1.5-fold of each other in IC50: 10 µM for the first, 8 µM for the second.

Compared with “N-Benzyloxycarbonyl-S-isoleucyl-S-phenylalanyl-1-S-formyl-1-(S)-1-methylpropylbutyl-methylamide [Example 23]”, “N-Benzyloxycarbonyl-S-p-bromophenylalanyl-S-2'naphthylalanyl-1-S-formyl-1-(1H-indol-3-yl-methyl)-methylamide [Example 38]” is 440-fold lower in IC50: 3.5 µM for the first, 0.008 µM for the second. The second is the more potent here.

Going from “N-Benzyloxycarbonyl-S-tryptophanyl-S-2'naphthylalanyl-1-S-formyl-1-(1H-indol-3-yl-methyl)-methylamide [Example 35]” to “N-Benzyloxycarbonyl-S-tryptophanyl-S-tryptophanyl-1-S-formyl-1-(1H-indol-3- yl-methyl)-methylamide [Example 31]”, the IC50 rises from 0.03 µM to 0.06 µM (2-fold). The first is the more potent here.

Compared with “N-[12-[(benzyloxy)acetamido]dodecanoyl]--L-isoleucyl-L-isoleucine-L-N-[1-formyl]2-(1H-indol-3-yl)ethyl]amide [Example 79]”, “N-[(benzyloxy)carbonyl]-L-aspart-1-yl]-L-isoleucyl-L-isoleucine-L-N-[1-dimethoxymethyl]2-(1H-indol-3-yl)ethyl]amide [Example 76]” is 43-fold higher in IC50: 0.06 µM for the first, 2.6 µM for the second. The first is the more potent here.

First: N-[[5-(hexahydro-2-oxo-1H-thieno[3,4-d]imidazol-4-yl]valeryl-L-isoleucyl-L- isoleucine-L-N-[1-formyl]2-(1H-indol-3-yl)ethyl]amide [Example 63]
Second: N-[[[5-(hexahydro-2-oxo-1H-thieno[3,4-d]imidazol-4-yl)valeramido]hexanoyl]- L-isoleucyl-L-isoleucine-L-N-[1-formyl]2-(1H-indol-3-yl-ethyl]amide [Example 67]
The IC50 of the first is 2.7-fold lower: 0.03 µM for the first, 0.08 µM for the second. The first is the more potent here.

First: N-[benzyloxy)carbonyl]-L-aspart-1-yl]-L-isoleucyl-L-isoleucine-L-N-[1-formyl]2-(1H-indol-3-yl)ethyl]amide [Example 65]
Second: [[5-(hexahydro-2-oxo-1H-thieno[3,4-d]imidazol-4-yl]valeryl-L-isoleucyl-L-isoleucine-L-N-[1-dimethoxymethyl]2-(1H-indol-3-yl)ethyl]amide [Example 62]
The IC50 of the first is 20-fold lower: 0.1 µM for the first, 2 µM for the second. The first is the more potent here.
